We go through 6 compounds from patent US12357604B2, “Topical formulations of cannabinoids and use thereof in the treatment of pain” (INMED PHARMACEUTICALS INC., priority 2017, dated 2025).

Data set [1] relates to masseter muscle mechanoreceptors. The experiment in a line: In vivo electrophysiology: mechanical threshold of mechanoreceptors. To be noted: for MT of masseter muscle mechanoreceptors on co-administration of THC with CB1 or CB2 antagonist: THC 1 mg/ml with AM251 or AM630 (1:0.5 and 1:1 mg/ml), intramuscular; for MT of masseter muscle mechanoreceptors: anesthetized rats, MT at 10, 30, 60, 120 min, 6 mechanoreceptors/group. More on the design: species or system Sprague-Dawley rats. The method, then:
In vivo electrophysiology recordings of single ganglion neurons that innervate the craniofacial muscles were performed to investigate the mechanism of action of peripherally injected cannabinoids. Rats (n=6/group) from the behavioral experiments were used for subsequent in vivo electrophysiological experiments. Recordings were performed at least 7 days after the behavioral experiments and experiments were conducted on the PBS-injected masseter muscles (right side) of the rats to minimize potential residual effects of the previous cannabinoid treatments.
Rats were anesthetized with isoflurane (2-2.5% in oxygen 97-98%; AErrane; Baxter) and surgically prepared for electrophysiological recording. Heart rate, blood pressure and body temperature were monitored and a trachea tube was inserted for ventilation throughout the experiment. The hair of the face was shaved and the animal's head was positioned in a stereotaxic frame.
A parylene-coated tungsten microelectrode (0.10″, 2 MΩ, A-M Systems Inc.) was lowered into the trigeminal ganglion through the brain via a small trephination in the skull. An incision was made over the neck to expose the brain stem, and the dura was removed to allow access for a stimulating electrode to contact the caudal brain stem. Mechanoreceptors innervating craniofacial muscles (masseter and temporalis) were identified by mechanical probing using a fine-tipped cotton swab. Antidromic collisions were performed to confirm projection of the muscle fiber to the caudal brain stem (16, 30).
A stimulating electrode (parylene-coated tungsten microelectrode, 0.10″, 2 MΩ, A-M Systems Inc.) was lowered into the ipsilateral caudal brainstem and a constant-current electrical stimulus (100 μs biphasic pulse, 10-90 μA, 0.5 Hz) was applied to evoke antidromic action potentials. Orthodromic action potentials were evoked by mechanical stimulation of the tissue. […] The straight line distance between the stimulating and recording electrodes was divided by the latency of the antidromic action potential to estimate conduction velocity. MT was assessed with an electronic von Frey hair (IITC Life Science) by applying mechanical stimuli at 1 min intervals for 10 min to obtain baseline threshold. After baseline measurement, treatment was administered and MT was reassessed at 10, 30, 60, and 120 minutes thereafter. At the end of the experiments, animals were euthanized with pentobarbital (Nembutal 100 mg/kg, Abbott Laboratories, Chicago, IL).
(§1) For the immunohistochemistry experiment, the frequency of expression of CB1, CB2 and TRPV1, respectively, in trigeminal ganglion neurons between NGF and vehicle-injected sides was analyzed with a paired Student's t-test. For the behavioral and electrophysiological experiments, MT from NGF and vehicle-injected sides was analyzed with a two-way repeated measures analysis of variance (ANOVA) with time and treatment as factors. Relative mechanical activation threshold (Rel MT) was calculated as 100×Post-treatment MT/Baseline MT. Post hoc Holm Sidak's multiple comparison tests were used to compare post injection mechanical thresholds between treatment groups at each time point. One-way repeated measures ANOVA on ranks was used to analyze test scores in the inverted screen tests. A probability level of 0.05 was considered significant for all tests. Error bars represented standard error of the mean.

Data set [2] relates to NGF-induced sensitization in female rat masseter muscle. The experiment in a line: Behavioral mechanical threshold (electronic von Frey) of NGF-sensitized masseter muscle. It is filed as in vivo, Sprague-Dawley rats. To be noted: for Effect on NGF-induced mechanical sensitization (masseter muscle mechanical threshold, MT): intramuscular injection 10 μl, into NGF-injected masseter 3 days after NGF, MT at 10, 30, 60, 120 min, n=6/group; for MT of contralateral masseter muscles: after intramuscular cannabinoid injection into the NGF-injected side (THC 1 mg/ml, CBD 5 mg/ml, CBN 1 mg/ml).
Text: Female (259-350 g, n=55) Sprague-Dawley rats were used for all experiments. Animals were housed in groups of two with a 12-h light/dark cycle. Food and water were given ad libitum. All animal procedures were reviewed and approved by the University of British Columbia Animal Care Committee.
Appropriate volumes of each solution were evaporated under nitrogen gas, and subsequently re-solubilized with 4% Tween 80 in isotonic saline to final concentrations used for injection.
Three days before behavioral experiments, rats received an injection of NGF (25 μg/ml, 10 μl, Sigma, St. Louis, MO) or vehicle (phosphate buffered saline, PBS, 10 μl) into the left and right masseter muscles, respectively, under brief isoflurane anesthesia. […] This is accompanied by an increase in NMDA receptor expression in peripheral trigeminal ganglion neurons with a peak at three days after injection (15). […] The masseter muscle region was shaved prior to injection and the injection sites were marked with a permanent marker for subsequent identification. The concentration of NGF was selected based on the concentration used in previous human experimental pain studies and experiments in rats (15, 24, 25, 26, 27). The investigator was blinded to the identity of the treatment groups until after all data was collected.
MT was assessed with a rigid electronic von Frey hair (IITC Life Science, Woodland Hills, CA). Before NGF injection, rats were habituated to restraint in a towel. […] The mechanical test stimulus was applied at 1 min intervals for 5 min and the average was calculated for further analysis. MT was measured daily for 5 days prior to the start of the experiment to determine that measurements were stable. MT readings recorded prior to NGF injection were used as naïve baseline. […] On the test day, a post-NGF injection baseline (NGF baseline) was recorded before injection of cannabinoid treatment groups. After treatment injections, MT was measured at 10, 30, 60, and 120 min after injection.
as §1

Data set [3] concerns impaired motor function in rats. The data set is described as follows: Inverted screen test. It is filed as in vivo, Sprague-Dawley rats. To be noted: after intramuscular injection; for Impairment of motor functions in the inverted screen tests: tested at 10, 30, 60 and 120 min, n=4/group; for Inverted screen test median score: score 0 climbed to top, 1 held on upside down, 2 fell. As for the experimental part: A modified version of the inverted screen test was performed to evaluate impaired motor function in rats (28, 29). Rats (n=4/group) were placed on a screen (185 mm×290 mm) with 5 mm diameter holes and the screen was slowly inverted 180 degrees until the rats were suspended upside down on the bottom of the screen. […] The rats were trained how to perform the test daily for three days before they were tested.
as §1

Data set [4] relates to mental nerve ligation model. The experiment in a line: Topical THC in mental nerve ligation model. It is filed as in vivo, mice. To be noted: topical THC 1% in a PLO-gel cream base. The method, then:
FIG. 14 illustrates the effect of topical THC (1%) in a mental nerve ligation model. Neuropathic pain behavior was measured by observing total facial grooming in naïve and post-surgical mice after application of vehicle or THC.
FIG. 15 illustrates the effect of topical THC (1%) in a mental nerve ligation model. Neuropathic pain behavior was measured by observing mechanical threshold response in naïve and post-surgical mice after application of vehicle or THC.

Setting [5] is: intramuscular injection 1 mg/ml.

“Also recorded” adds a separate entry of the source.

Regarding `Cc1c(C(=O)NN2CCCCC2)nn(-c2ccc(Cl)cc2Cl)c1-c1ccc(I)cc1` [AM251, 1-(2,4-dichlorophenyl)-5-(4-iodophenyl)-4-methyl-N-1-piperidinyl-1H-pyrazole-3-carboxamide], the “MT of masseter muscle mechanoreceptors on co-administration of THC with CB1 or CB2 antagonist” value in data set [1] is reported as “attenuated the increase in MT mediated by THC alone”.

With `COc1ccc(C(=O)c2c(C)n(CCN3CCOCC3)c3cc(I)ccc23)cc1` [AM630, [6-iodo-2-methyl-1-[2-(4-morpholinyl)ethyl]-1H-indol-3-yl](4-methoxyphenyl)-methanone], the “MT of masseter muscle mechanoreceptors on co-administration of THC with CB1 or CB2 antagonist” value in data set [1] is recorded as “not different from THC alone”.

As to `CCCCCc1cc(O)c2c(c1)OC(C)(CCC=C(C)C)C=C2` (stereo not shown) [CBC, Cannabichromene], in data set [2] (1 mg/ml), the “Effect on NGF-induced mechanical sensitization (masseter muscle mechanical threshold, MT)” value (from here on “Effect”) is on record as “No effect on MT”. Also, in data set [3], the “Impairment of motor functions in the inverted screen tests” value (“Impairment of motor functions” for short) was “No impairment of motor functions” and the “Inverted screen test median score” value was found to be 0.

Regarding `C=C(C)C1CCC(C)=CC1c1c(O)cc(CCCCC)cc1O` (stereo not shown) [CBD, 2-(6-isopropenyl-3-methyl-2-cyclohexen-1-yl)-5-pentyl-1,3-benzenediol], the “MT of contralateral masseter muscles” value in data set [2] is “No change in mechanical threshold”. Further, the “Effect” value is “had no effect on NGF-induced mechanical sensitization” in data set [2] (1 mg/ml); “significantly reversed NGF-induced sensitization at 10 and 30 min after injection; also recorded: Significant differences” in data set [2] (5 mg/ml). Besides, the “MT of masseter muscle mechanoreceptors” value in data set [1] (setting [5]) is reported as “not 1 mg/ml, significantly increased MT”; in data set [1] (intramuscular injection 5 mg/ml) it was “significantly increased MT, 30 min after injection; also recorded: Significant differences”. For the same compound, the “Impairment of motor functions” value in data set [3] was “No impairment of motor functions”. In data set [3], the “Inverted screen test median score” value was 0.

On to `CCCCCc1cc(O)c2c(c1)OC(C)(C)c1ccc(C)cc1-2` [CBN, 6,6,9-trimethyl-3-pentylbenzo[c]chromen-1-ol], for which the “MT of contralateral masseter muscles” value in data set [2] is reported as “No change in mechanical threshold”. In data set [2] (1 mg/ml), the “Effect” value is listed as “significant increase in MT at 10 min after injection compared to NGF baseline; also recorded: Significant differences”. For the same compound, in data set [1] (AUC of MT data of FIGS. 9-12, compared to the other indicated treatments), the “Area under the curve (AUC) analysis of the electrophysiological data” value is “reduction in pain response”. Also, the “MT of masseter muscle mechanoreceptors” value in data set [1] (setting [5]) was “significantly increased MT at 30 and 60 min after injection; also recorded: Significant differences”. Besides, in data set [3], the “Impairment of motor functions” value is reported as “No impairment of motor functions” and the “Inverted screen test median score” value came out at 0.

Consider `CCCCCc1cc(O)c2c(c1)OC(C)(C)[C@@H]1CCC(C)=C[C@@H]21` [THC, delta-9-tetrahydrocannabinol], for which the “MT of contralateral masseter muscles” value in data set [2] is reported as “No change in mechanical threshold”. Besides, the “Effect” value in data set [2] (1 mg/ml) was “significantly reversed NGF-induced sensitization at 10 and 30 min after injection; also recorded: Significant differences”. Further, the “MT of masseter muscle mechanoreceptors” value in data set [1] (setting [5]) was “significantly increased the MT of mechanoreceptors at 10, 30 and 60 min after injection; also recorded: Significant differences”. Also, in data set [3], the “Impairment of motor functions” value is reported as “No impairment of motor functions” and the “Inverted screen test median score” value is recorded as 0. Moreover, in data set [4], the “Mechanical allodynia in the lower lip skin (mechanical threshold response)” value was “reversed mechanical allodynia” and the “Neuropathic pain behavior (facial grooming)” value is recorded as “reduced neuropathic pain behavior”.
